In general, MIC refers to the lowest concentration that inhibits growth of the organism. Broadly, the LD50 is the dose expected to kill half of the subjects tested.

Converted amounts (≈) assume the structure as drawn. Like-named read-outs stand apart in the source and are kept apart here.

One data set has as its system P. vulgaris 6896. Nature of the data set: In vitro antibacterial activity (MIC), P. vulgaris 6896. Conditions: Proteus vulgaris, 6896, 18 h.
Another data set deals with P. cynomolgi. Description: Activity against P. cynomolgi infections in Rhesus monkeys. Format: in vivo, P. cynomolgi (infected Rhesus monkeys). The conditions noted are these: Plasmodium cynomolgi, in Macaca mulatta, 168 h.
A further data set relates to E. coli 9637. Description: In vitro antibacterial activity (MIC), E. coli 9637. Conditions: Escherichia coli, 9637, 18 h.
Another data set relates to N. catarrhalis 8193. Nature of the data set: In vitro antibacterial activity (MIC), N. catarrhalis 8193. Conditions: 18 h.
Data set [1] in a line: Antimalarial blood schizonticidal test in mice. The data set is classed as in vivo, Plasmodium berghei (infected ICR/HA Swiss mice). Further details: ΔMST (increase in mean survival time): unit: days. Conditions: mouse, in vivo, sc, single dose, read-out: Highest Non-Lethal Dose. In short, it runs like this:
(§1)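 ICR/HA Swiss mice (18–22 g) infected i.p. with 4 × 10^7 P. berghei KBG 173-parasitized cells; single subcutaneous dose in peanut oil at 72 h post-infection, graded dosages. Survival followed 60 days; 60-day survivors counted cured, deaths before day 6 counted toxic; mean survival time compared with untreated controls.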

Data set [2] relates to Plasmodium berghei KBG 173. Nature of the data set: Antimalarial blood schizonticidal test in mice. Format: in vivo, Plasmodium berghei (infected ICR/HA Swiss mice). Further details: ΔMST (increase in mean survival time): unit: days. The conditions noted are these: for ED100 / minimal effective dose: Plasmodium berghei, sc, single dose; for ED100: read-out: Lowest Dose Curing All Mice; for minimal effective dose: read-out: Min. Curing Dose; for Cure/Treat at Min. Curing Dose: at the Min. Curing Dose. In short, it runs like this:
as §1

The test system of another data set is Proteus mirabilis 190. Nature of the data set: In vivo antibacterial synergism (mouse), Proteus mirabilis 190. Further details: species or system Proteus mirabilis (infected mice, CD-1). How it is done: The test agents are weighed, suspended in 0.5% aqueous carboxymethyl cellulose, homogenized (glass tissue grinder) and diluted according to the design of the experiment. Mice (male, 18±1 g., CD-1 strain) are pre-weighed, pooled, infected at random intraperitoneally with a 0.5 ml. standardized suspension (LD95 ±5%) of the bacterial organism in 5% gastric mucin and treated at random with single doses of the test agents either at the time of infection or six hours after infecting. The treated groups consist of ten mice per dosage level. Deaths are recorded daily for 14 days and the PD50 (mice are treated at time of infection) and CD50 (mice are treated six hours after infecting) values are calculated by the method of Reed and Muench [Amer. J. Hyg., 27, 493 (1938)].

The subject of another data set is S. aureus 53-180. Nature of the data set: In vitro antibacterial activity (MIC), S. aureus 53-180. The conditions noted are these: Staphylococcus aureus, 53180, 18 h.
The test system of the next data set is K. pneumoniae 10031. Description: In vitro antibacterial activity (MIC), K. pneumoniae 10031. The conditions noted are these: Klebsiella pneumoniae, 10031, 18 h.
In a further data set the test system is S. paratyphi 11737. Description: In vitro antibacterial activity (MIC), S. paratyphi 11737. The data set is classed as cell-based. The conditions noted are these: Salmonella enterica, 18 h.
The subject of data set [3] is lymphocytic leukemia P-388. Nature of the data set: Activity in mice against lymphocytic leukemia P-388. Conditions: Mus musculus, P388, ip, read-out: T/C. Format: in vivo.
Data set [4] can be described thus: Acute toxicity in mice, i.p. single dose. The data set is classed as in vivo, Charles River COBS CD Strain Albino mice, male. The conditions noted are these: mouse, in vivo, ip; mice, single dose, 14 days. How it is done: (§2) Single doses of 7-(phenylmethyl)-7H-pyrrolo[3,2-f]-quinazoline-1,3-diamine (active moiety) were intraperitoneally administered in 0.5% carboxymethylcellulose at a constant dose volume of 10 ml./kg., to groups of 10 mice/dose level. (Charles River COBS CD Strain Albino mice, male, weight 21.0-25.29.) Daily observations were made on all mice for the duration of experiment (14 days). […] (95% confidence limits of 48.6-93.4) all deaths occurred 4-5 days post-drug-administration.
(§3) These effects lasted up to 6 days in the low dose animals and 14 days in those animals having received the highest dose. All mice alive on day 14 were sacrificed and necropsied.

A further data set has as its system mice. Description: Acute toxicity in mice, i.p. single dose. The data set is classed as in vivo, Charles River COBS CD Strain Albino mice, male. As to the method:
as §2, §3

The next data set relates to S. aureus Smith. Description: In vitro antibacterial activity (MIC), S. aureus Smith. Conditions: Staphylococcus aureus, 18 h.
Data set [5] concerns strains of P. berghei resistant to chloroquine, sulfones, cycloguanil, and pyrimethamine. Nature of the data set: Activity against resistant strains of P. berghei in mice. Format: in vivo, P. berghei (infected mice). An excerpt:
Activity against strains of P. berghei resistant to chloroquine, sulfones, cycloguanil, and pyrimethamine, is shown by the testing of 7-(phenylmethyl)-7H-pyrrolo[3,2-f]quinazoline-1,3-diamine and 7-[(2,5-dimethylphenyl)methyl]-7H-pyrrolo[3,2-f]quinazoline-1,3-diamine in mice against such resistant strains.

Turning to `Nc1nc(N)c2c(ccc3c2ccn3Cc2ccccc2)n1` [Example 2, 7-(Phenylmethyl)-7H-pyrrolo[3,2-f]quinazoline-1,3-diamine], the MIC against P. vulgaris 6896 came out at 7.81 mg/L (≈ 27 µM); in the data set on E. coli 9637, 1.95 mg/L (≈ 6.74 µM); in the data set with N. catarrhalis 8193, 0.061 mg/L (≈ 0.211 µM); in the data set with S. aureus 53-180, 1.95 mg/L (≈ 6.74 µM); in the data set on K. pneumoniae 10031, 1.95 mg/L (≈ 6.74 µM); with S. paratyphi 11737 it was 1.95 mg/L (≈ 6.74 µM). For the same molecule, the MIC in the data set on S. aureus Smith is 1.95 mg/L (≈ 6.74 µM). The ED50 turned out to be 0.1 mg/kg in the data set on P. cynomolgi (po, read-out: CD50) and 22.5 mg/kg in the data set with Proteus mirabilis 190 (Proteus mirabilis, 190, po, 336 h, read-out: PD50 (agent alone)). Further, in data set [1] (infected mice, highest dose with no deaths for any reason), the MTD is 160 mg/kg. In [2] (1440 h, s.c., 60-day survivors), the ED100 worked out at 80 mg/kg. Besides, the minimal effective dose in [2] (this is the lowest dose tested) is 20 mg/kg. The “Cure/Treat at Min. Curing Dose” value in [2] (s.c., 60-day survivors) was 2/5. The “ΔMST (increase in mean survival time)” value in data set [2] (s.c., dose 20 mg. per kg.) was 10.9. For the same molecule, the “PD50 SM/Cpd. (compound part)” value in the data set with Proteus mirabilis 190 (mice, p.o., 0 hours, with SM 1.56 mg. per kg., 20160 min) amounted to 7.78 mg. per kg. Also, the response vs control in vivo at 10 mg/kg in data set [3] came to 149%. For the same molecule, the LD50 at 336 h in data set [4] was 54.5 mg/kg. The duration of effects in the data set with mice (animals having received the highest dose, i.p.) is listed as 14 days; with mice (low dose animals, i.p.), “up to 6 days”. The “signs observed on day 2 post-drug-administration” value in the data set with mice (day 2, i.p. single dose) was “rough coats and decreased fecal elimination”. For the same molecule, the “necropsy, macroscopic” value in the data set on mice (mice alive on day 14) is on record as “Macroscopically, the tissues appeared normal”. In the data set on mice (mice, i.p., single dose), the “time of deaths post-drug-administration” value lay within 4 to 5 days. Moreover, the “LD50, 95% confidence limits” value in the data set with mice (mice, i.p., single dose, 14 days) is 48.6 to 93.4 mg/kg. In addition, the “signs in all mice after i.p. injection” value with mice (within 1 hour after i.p. injection) was “decreased spontaneous motor activity, bradypnea, ptosis, and stretching with indrawn sides in all mice”.
`Cc1ccc(C)c(Cn2ccc3c4c(N)nc(N)nc4ccc32)c1` [Example 23, 7-[(2,5-dimethylphenyl)methyl]-7H-pyrrolo[3,2-f]quinazoline-1,3-diamine]: the MIC came to 250 mg/L (≈ 788 µM) against P. vulgaris 6896; 31.3 mg/L (≈ 98.6 µM) with E. coli 9637; 0.244 mg/L (≈ 0.769 µM) against N. catarrhalis 8193; 0.976 mg/L (≈ 3.08 µM) against S. aureus 53-180; 1.95 mg/L (≈ 6.14 µM) against K. pneumoniae 10031; 125 mg/L (≈ 394 µM) against S. paratyphi 11737. Besides, in the data set with S. aureus Smith, the MIC came to 3.9 mg/L (≈ 12.3 µM). In addition, in the data set with P. cynomolgi (Rhesus monkeys, oral, seven days, read-out: CD50 (the source's name)), the ED50 amounted to 1 mg/kg. In addition, the “Activity against resistant strains” value in data set [5] is “Activity”. For the same molecule, the MTD in data set [1] (this is the highest dose tested) came to 640 mg/kg. Also, the ED100 in data set [2] (1440 h, s.c., 60-day survivors) is 40 mg/kg. Moreover, in [2] (1440 h, s.c., 60-day survivors), the minimal effective dose amounted to 10 mg/kg. The “Cure/Treat at Min. Curing Dose” value in [2] (s.c., 60-day survivors) was 3/5. Further, the “ΔMST (increase in mean survival time)” value in data set [2] (s.c., dose 5 mg. per kg.) stood at 7.9. Also, the response vs control in vivo at 10 mg/kg in [3] (mice, I.P., 10 mg/kg) came to 142%.

The values above are taken from patent US4118561A, “7-(Substituted)-7H-pyrrolo[3,2-f]quinazoline-1,3-diamines” (priority 1977, dated 1978).
